The values below come from US5830872A, “Esters of D-mannose or of xylitol and their use as medicaments” (L'Associazione di volontariato "Pro La Fondazione Futuro …, priority 1994, dated 1998).

For data set [1] the following is noted: 95 hours, cited from earlier work.
The conditions of data set [2]: cited from earlier work.
For data set [3], the system named is foetal haemoglobin, in particular the γ chain. The note with it: acids and their salts, cited from earlier work; for synthesis of foetal haemoglobin: in particular γ chain.
In a further data set the test system is HL 60 cells. Briefly: Antiproliferative test: inhibition of growth of HL 60 cells. Type of data set: cell-based. Conditions: concentrations 0.5 to 1 mM. How it is done: The tests were carried out on stabilized cell lines (HL 60 and others) in the absence of growth factors. The concentrations of butyric derivatives vary from 0.5 to 1 mM.
The following parameters were evaluated by "FASC Scan" scanning and flow cytometry:
incorporation of tritiated thymidine (exploration of cell metabolism);
incorporation of propylium iodide (determination of the phase of the cell cycle);

Data set [4] deals with γ chain of the haemoglobin. In words: Level of γ chain of the haemoglobin in erythroleukaemic cell lines. It counts as cell-based. The note with it: 0.70 mM (α-MAM-A), 0.35 mM (Xyli-C); for level of γ chain of the haemoglobin in the presence of A.P.A.A.P.: 10% without ester; for increase in level of γ chain of the haemoglobin: erythroleukaemic cell lines, normal human serum. How it is done:
The following parameters were evaluated: level of γ chain of the haemoglobin (immunological quantitative determination by double antigen antibody reaction and by immunocytochemical quantitative determination in the presence of alkaline phosphatase-anti-alkaline phosphatase A.P.A.A.P.);

The conditions of data set [5]: cited from earlier work. This is another data set of the same source.

With `CCCC(=O)O[C@@H]1[C@H]2OC(C)(C)O[C@H]2O[C@@H]1[C@H](O)CO` [3-O-n-butanoyl-1,2-O-isopropylidene-α-D-glucofuranose], in data set [1] (pH=8.1, 25° C.), the “5-O-n-butanoyl isomer in the non-deesterified fraction” value is reported as 4%, the “6-O-n-butanoyl isomer in the non-deesterified fraction” value is 90% and the “initial ester in the non-deesterified fraction” value was 6%. Moreover, in data set [1] (same conditions (pH=8.1, 25° C.), Goueth et al.), the deesterification is on record as 20%. Besides, in data set [2], the “internal transesterification in solution” value is recorded as “undergoes an internal transesterification”.
For the compound `O=C(O)CCCc1ccccc1` [4-phenylbutyric acid], in data set [3], the “γ gene of human foetal haemoglobin” value is reported as “induce the γ gene of human foetal haemoglobin” and the “synthesis of foetal haemoglobin” value was “stimulate the synthesis of foetal haemoglobin”.
Consider `CCCC(=O)OCC1OC(C)(C)OC1C(O)CO` (stereo not drawn) [MAXyli-C, 1-O-n-butanoyl-2,3-O-isopropylidenexylitol], for which the “% of inhibition of growth HL 60” value with HL 60 cells (3 d.) is recorded as 80%; in the data set on HL 60 cells (4 d.), 90%.
`CCCC(=O)OC[C@H](O)[C@@H](O)[C@H](O)CO` [Xyli-C, 1-O-n-butanoylxylitol]: the “% of inhibition of growth HL 60” value with HL 60 cells (5 d.) is reported as 70%. In data set [4], the “level of γ chain of the haemoglobin in the presence of A.P.A.A.P.” value came to 17% and the “increase in level of γ chain of the haemoglobin” value is reported as “increase the level of γ chain of the haemoglobin”.
As for `CCCC(=O)O` [n-butyric acid], the “in vivo plasma lifetime” value in data set [5] is given as “very short in vivo plasma lifetime”. In addition, in data set [3], the “γ gene of human foetal haemoglobin” value is “induce the γ gene of human foetal haemoglobin” and the “synthesis of foetal haemoglobin” value is “stimulate the synthesis of foetal haemoglobin”.
On to `O=C(O)Cc1ccccc1` [phenylacetic acid], for which, in data set [3], the “γ gene of human foetal haemoglobin” value is recorded as “induce the γ gene of human foetal haemoglobin” and the “synthesis of foetal haemoglobin” value is reported as “stimulate the synthesis of foetal haemoglobin”.
In the case of `CCCC(=O)O[C@H]1O[C@H]([C@H](O)CO)[C@@H]2OC(C)(C)O[C@H]12` [α-MAM-A, O-n-butanoyl-2,3-O-isopropylidene-α-D-mannoside], the “% of inhibition of growth HL 60” value in the data set on HL 60 cells (2 d.) turned out to be 40%. Besides, the “% of inhibition of growth HL 60” value in the data set with HL 60 cells (5 d.) is reported as 80%. In data set [4], the “level of γ chain of the haemoglobin in the presence of A.P.A.A.P.” value was 22% and the “increase in level of γ chain of the haemoglobin” value is recorded as “increase the level of γ chain of the haemoglobin”.
